Consider five molecules from US7973213B2, “Antibiotic resistance conferred by a plant ABC transporter gene when expressed in transgenic plants” (University of Tennessee Research Foundation, priority 2005, dated 2011).

Experiment [1] has as its system Nicotiana tabacum cv Xanthi. The experiment can be described thus: Root growth of T1 transgenic tobacco (pS15-ABC-dKan) on media with kanamycin. It counts as in vivo. Conditions: 200 mg/l kanamycin, 3 weeks. The protocol: Segregation analysis was performed on MS media (Murashige et al., 1962) with B5 vitamins (Gamborg et al., 1968) and 3% sucrose (MSO media) containing 200 mg/l kanamycin. T1 seeds from plants transformed with pS15-ABC-dKan were surface sterilized and germinated on the media. Root growth analysis was performed as above on vertically positioned plates where 6 seeds per plate and 6 replicate plates for each event were germinated with and without 100 and 200 mg/l kanamycin. Root length was measured after 3 weeks. All experiments were performed in a 25° C. growth cabinet under constant 40 μE irradiance.

A further experiment concerns Escherichia coli DH5α. The experiment can be described thus: Kanamycin resistance of transformed E. coli in 96-well microtiter plates (optical density 630 nm). The format is cell-based. The conditions noted are these: E. coli transformed with pKS-ABC, IPTG 1 mM, 24 hr. The protocol: Escherichia coli DH5α was obtained from stock strains available within our lab. All strains were cultured on LB media. Three plasmids were used in this study. pKS-ABC contains the Atwbc19 gene under the control of the lacZ promoter in pBluescript II SK+; pKS-nptII contains the nptII gene with the lacZ promoter in pBluescript II SK+; and pKS is pBluescript II SK+ with no inserted genes as a control. The microorganisms were maintained in glycerol stocks and stored at −80° C. Working cultures were obtained by inoculating a loopful of culture into 50 ml LB broth supplemented with ampicillin (100 mg/l) and incubated at 37° C. for 24 hr.
E. coli DH5α were transformed with pKS, pKS-ABC, and pKS-nptII by freeze/thaw method (Hanahan 1983). The gram-negative […] Escherichia coli DH5α were used in all transformations. For selection of transformants, aliquots of bacteria were spread onto solidified LB medium supplemented with ampicillin (100 mg/l) and incubated at 37° C.
Isopropyl-b-D-thiogalctopyranoside (IPTG) at 1 mM was used to induce Atwbc19 expression. Each well was filled with 199 μl LB, IPTG and varying concentrations of kanamycin or gentamycin and 50 μl bacterial treatment (DH5α transformed with pKS-ABC, DH5α transformed with pKS-nptII, DH5α transformed with pKS or none). […] Optical densities were measured at 630 nm (Biorad) after incubating microtiter plates at 37° C. for 24 hr.

Experiment [2] relates to Arabidopsis thaliana insertional knockout mutants. The experiment can be described thus: Root growth of Arabidopsis insertional mutants on MSO media with kanamycin. Conditions: media with 100 mg/l kanamycin, 2 weeks. The format is in vivo. The method, then:
Sequence-tagged insertional mutant lines for the three ABC transporters, Atwbc19 (SALK—107731), Atwbc18 (SALK—100187) and Atwbc16 (SALK—119868) were obtained from ABRC Arabidopsis knock-out library. Homozygosity was tested by PCR of genomic DNA using 3 primers (Table 1). Two of the primers are specific to the native gene and amplify a known fragment. The third primer is specific to the T-DNA. Where the T-DNA is inserted between the two gene specific primers, a smaller fragment is generated allowing the identification of insertion in the gene of interest. The fragment was sequenced to ensure that it mapped at the expected loci. Kanamycin resistance was assessed by growing the mutants on MSO media with and without 100 mg/l kanamycin. Stratified seeds were germinated on 4 Petri dishes with 6 plants for each line and placed vertically in a growth chamber at 25 degrees. Root length was measured after 2 weeks. To quantify NPTII protein levels, total protein was extracted from 100 mg of root and shoot tissue from seedlings germinated on MSO media for 2 weeks, with 2 replicate samples per line. An ELISA was performed using a kit according to the manufactures instructions (Agdia, Elkhart, Ind., USA).

Experiment [3] deals with transgenic tobacco events 28 and 30. The experiment can be described thus: Resistance of Atwbc19 transgenic tobacco events to other antibiotics. The format is in vivo, Nicotiana tabacum. Conditions: Atwbc19-only transgenic events 28 and 30.

`NC[C@H]1O[C@H](O[C@H]2[C@H](O)[C@@H](O[C@H]3O[C@H](CO)[C@@H](O)[C@H](N)[C@H]3O)[C@H](N)C[C@@H]2N)[C@H](O)[C@@H](O)[C@@H]1O` [kanamycin]: the Root length is reported as 1.03±0.55 cm in experiment [1] (Atwbc19 transgenic event #28, T1 seeds); 2.02±1.16 cm in experiment [1] (Atwbc19 transgenic event #30, T1 seeds); 0.37±0.09 cm in experiment [1] (control (non-transgenic) tobacco). The “kanamycin concentrations to which Atwbc19 confers resistance” value in the experiment with Escherichia coli DH5α is given as “below 12.5 mg/l”. For the same molecule, the “root growth (root length)” value in experiment [2] (line SALK—100187 (Atwbc18 mutant)) is given as 1.82±0.25 cm; in experiment [2] (line SALK—107731 (Atwbc19 mutant)) it was 0.31±0.04 cm; in experiment [2] (line SALK—119868 (Atwbc16 mutant)), 0.30±0.03 cm.

Take `O=C(N[C@H](CO)[C@H](O)c1ccc([N+](=O)[O-])cc1)C(Cl)Cl` [chloramphenicol]: in experiment [3], the “resistance of plants to the antibiotic” value is recorded as “no resistance”.

Regarding `NCC[C@H](O)C(=O)N[C@@H]1C[C@H](N)[C@@H](O[C@H]2O[C@H](CN)[C@@H](O)[C@H](O)[C@H]2O)[C@H](O)[C@H]1O[C@H]1O[C@H](CO)[C@@H](O)[C@H](N)[C@H]1O` [amikacin], the “resistance of plants to the antibiotic” value in experiment [3] was “no resistance”.

With `[H]/N=C(/N)N[C@H]1[C@H](O)[C@@H](O)[C@H](O[C@@H]2O[C@@H](C)[C@](O)(C=O)[C@H]2O[C@@H]2O[C@@H](CO)[C@H](O)[C@@H](O)[C@@H]2NC)[C@@H](N/C(N)=N\[H])[C@@H]1O` [streptomycin], in experiment [3], the “resistance of plants to the antibiotic” value is “no resistance”.

For gentamycin, the “resistance of plants to the antibiotic” value in experiment [3] is on record as “no resistance”.
